Results published in paper PMC4393083, “Antiviral Activity and Possible Mechanism of Action of Constituents Identified in Paeonia lactiflora Root toward Human Rhinoviruses” (PLoS ONE, 2015).

Assays:
[1] = system: LDLR; test: Western blot of LDLR in MRC5 cells; type: cell-based, human; settings: MRC5, 2 days, regardless of HRV-2 infection, similar with HRV-4, 100 μg/mL PA, 20 μg/mL PGG
Method: Cell lysates from infected and noninfected MRC5 cultures 2 days after incubation with or without test compounds were obtained in RIPA buffer and 1% mammalian cell protease inhibitor cocktail according to the manufacturer’s instructions. Working dilutions of primary antibodies were dilulted 500, 2000, and 1000 times for anti-ICAM-1, anti-LDLR, and anti-actin antibodies, respectively. Working dilutions of secondary antibody was 1000, 1000, and 800 for anti-ICAM-1, anti-LDLR, and anti-actin, respectively. Ten micrograms of cell lysates from different treatments were mixed with an equal volume of 5× Laemmli sample buffer, boiled in 10 min, and resolved by electrophoresis in 11% sodium dodecyl sulfate-polyacrylamide gels (SDS-PAGE). […] Differences in protein expressions were quantified using a Molecular Imager Gel Doc XR system (Bio-Rad, Hercules, CA) and normalized to actin expression on the same membrane.
The expressions of ICAM-1 and LDLR were examined using real-time qRT-PCR and Western blot. Furthermore, concentrations of soluble ICAM-1 (sICAM-1) in cell-free culture supernatants 2 days after treatment were measured using a sICAM-1 ELISA Kit (Pierce Biotechnology, Rockford, IL) according to the manufacturer’s instructions. […] The concentrations of ICAM-1 in the test samples were determined from OD values using standard curve of each assay.

[2] = system: HRV-4; test: Real-time qRT-PCR of HRV-4 RNA replication in MRC5 cells; type: cell-based, human rhinovirus; settings: MRC5, 2 days after infection; 100 μg/mL PA, 20 μg/mL PGG; vs untreated cultures
Method: (§1) To evaluate the level of gene expression, real-time qRT-PCR with SYBR Green dye was carried out. HRV-2 or HRV-4 infected and noninfected cultures of MRC5 monolayers grown in 25 cm^2 cell culture flasks (Corning, NY) were treated with 100 μg/mL PA or 20 μg/mL PGG. After incubation at 37°C and 5% CO2 for 2 days, total RNA was extracted from the culture cells using the RNeasy Plus Mini Kit (Qiagen, Hilden, Germany) according to the manufacturer’s instructions. Contaminated genomic DNA was removed using RQ1 RNase-free DNase (Promega, Madison, WI). Complementary DNA (cDNA) was synthesized using 1 μg total RNA through a reverse transcription reaction using the SuperScript First-Strand Synthesis Kit (Invitrogen, Carlsbad, CA). […] The PCR conditions were as follows: 50°C for 2 min, 95°C for 10 min, and then 50 cycles of 95°C for 15 s and either 60°C [β2-microglobulin (B2M), interleukin (IL)-6, IL-8, LDLR, ICAM-1, HRV-2, and HRV-4] or 58°C (B2M and IL-1β) or 55°C [B2M, Toll-like receptor 3 (TLR3), tumor necrosis factor (TNF), and interferon beta (IFNβ)] for 30 s. mRNA expression level of target gene was normalized to mRNA expression level for the housekeeping gene B2M and analyzed by the 2^–ΔΔCT method using StepOne Software v2.1 and DataAssist Software (Applied Biosystems). […]

[3] = system: sICAM-1; test: Soluble ICAM-1 ELISA in MRC5 culture supernatants; type: cell-based, human; settings: HRV-2 or HRV-4 infected MRC5 cultures, 100 μg/mL PA, 20 μg/mL PGG
Method: The expressions of ICAM-1 and LDLR were examined using real-time qRT-PCR and Western blot. Furthermore, concentrations of soluble ICAM-1 (sICAM-1) in cell-free culture supernatants 2 days after treatment were measured using a sICAM-1 ELISA Kit (Pierce Biotechnology, Rockford, IL) according to the manufacturer’s instructions. The sensitivities of the assays were 0.3 ng/mL. The concentrations of ICAM-1 in the test samples were determined from OD values using standard curve of each assay.

[4] = system: TLR3; test: TLR3 mRNA expression, qRT-PCR in MRC5; type: cell-based, human; settings: MRC5, 2 days after infection; 100 μg/mL PA, 20 μg/mL PGG
Method: as §1

[5] = system: IFN-β; test: IFN-β mRNA expression, qRT-PCR in MRC5; type: cell-based, human; settings: MRC5, 2 days after HRV-2 or HRV-4 infection; 100 μg/mL PA, 20 μg/mL PGG
Method: as §1

| Compound | effect on LDLR protein expression [1] | reduction of HRV-4 RNA replication level [2] [fold] | sICAM-1 levels in supernatants vs cultures without treatment [3] | TLR3 mRNA expression vs cultures without treatment [4] | effect on HRV-induced IFN-β mRNA expression [5] |
| --- | --- | --- | --- | --- | --- |
| COc1ccc(C(C)=O)c(O)c1 [PA, paeonol] | no effect | 16.3 | significantly lower | significantly lower | meaningfully inhibited |
| O=C(OC[C@H]1O[C@@H](OC(=O)c2cc(O)c(O)c(O)c2)[C@H](OC(=O)c2cc(O)c(O)c(O)c2)[C@@H](OC(=O)c2cc(O)c(O)c(O)c2)[C@@H]1OC(=O)c1cc(O)c(O)c(O)c1)c1cc(O)c(O)c(O)c1 [PGG, 1,2,3,4,6-penta-O-galloyl-β-D-glucopyranose] | sharp decline | 15.1 | significantly lower | significantly lower | meaningfully inhibited |
